In patent US20210277003A1, “OGA INHIBITOR COMPOUNDS” (Janssen Pharmaceutica NV, priority 2018, published 2021):

Experiments:
[1] = test system: OGA in HEK293 cells inducible for P301L mutant human Tau (isoform 2N4R); experiment: OGA cellular assay: immunocytochemical detection of O-GlcNAcylated proteins (CTD110.6 antibody); type: cell-based; settings: 6 hours incubation; for Emax / EC50: Homo sapiens, HEK293, 6 h; for Emax: maximum = Thiamet G 200 uM; for EC50: read-out: Cellular hOGA, pEC50 (converted)
Procedure: HEK293 cells inducible for P301L mutant human Tau (isoform 2N4R) were established at Janssen. Thiamet-G was used for both plate validation (high control) and as reference compound (reference EC50 assay validation). OGA inhibition is evaluated through the immunocytochemical (ICC) detection of O-GlcNAcylated proteins by the use of a monoclonal antibody (CTD110.6; Cell Signaling, #9875) detecting 0-GlcNAcylated residues as previously described (Dorfmueller et al. 2010 Chemistry & biology, 17:1250). Inhibition of OGA will result in an increase of O-GlcNAcylated protein levels resulting in an increased signal in the experiment. Cell nuclei are stained with Hoechst to give a cell culture quality control and a rough estimate of immediate compounds toxicity, if any. ICC pictures are imaged with a Perkin Elmer Opera Phenix plate microscope and quantified with the provided software Perkin Elmer Harmony 4.1.
Cells were propagated in DMEM high Glucose (Sigma, #D5796) following standard procedures. 2 days before the cell assay cells are split, counted and seeded in Poly-D-Lysine (PDL) coated 96-wells (Greiner, #655946) plate at a cell density of 12,000 cells per cm^2 (4,000 cells per well) in 100p of Assay Medium (Low Glucose medium is used to reduce basal levels of GlcNAcylation) (Park et al. 2014 The Journal of biological chemistry 289:13519). At the day of compound test medium from assay plates was removed and replenished with 90 µl of fresh Assay Medium. 10p of compounds at a 10 fold final concentration were added to the wells. Plates were centrifuged shortly before incubation in the cell incubator for 6 hours. DMSO concentration was set to 0.2%. Medium is discarded by applying vacuum. For staining of cells medium was removed and cells washed once with 100 μl D-PBS (Sigma, #D8537). From next step onwards unless other stated assay volume was always 50p and incubation was performed without agitation and at room temperature. Cells were fixed in 50 μl of a 4% paraformaldehyde (PFA, Alpha aesar, #043368) PBS solution for 15 minutes at room temperature. […] Before analysis samples were washed 2 times manually for 5 minutes in ICC base buffer.
Imaging is performed using Perkin Elmer Phenix Opera using a water 20× objective and recording 9 fields per well. Intensity readout at 488 nm is used as a measure of O-GlcNAcylation level of total proteins in wells. To assess potential toxicity of compounds nuclei were counted using the Hoechst staining. IC50-values are calculated using parametric non-linear regression model fitting. As a maximum inhibition Thiamet G at a 200 uM concentration is present on each plate. In addition, a concentration response of Thiamet G is calculated on each plate.

[2] = target: T1, recombinant human Meningioma Expressed Antigen 5 (MGEA5), also referred to as O-GlcNAcase (OGA) (Homo sapiens, UniProt O60502); experiment: OGA biochemical assay: inhibition of hydrolysis of fluorescein mono-ß-D-N-Acetyl-Glucosamine (FM-GlcNAc), fluorescence readout; settings: FM-GlcNAc substrate; for Emax: read-out: Enzymatic Emax (%); for IC50: read-out: Enzymatic hOGA, pIC50 (converted)
T1 construct: Full length OGA enzyme was purchased at OnGene (cat #TP322411); purchased OnGene (so in the source)
T1 sequence (O60502 1-916): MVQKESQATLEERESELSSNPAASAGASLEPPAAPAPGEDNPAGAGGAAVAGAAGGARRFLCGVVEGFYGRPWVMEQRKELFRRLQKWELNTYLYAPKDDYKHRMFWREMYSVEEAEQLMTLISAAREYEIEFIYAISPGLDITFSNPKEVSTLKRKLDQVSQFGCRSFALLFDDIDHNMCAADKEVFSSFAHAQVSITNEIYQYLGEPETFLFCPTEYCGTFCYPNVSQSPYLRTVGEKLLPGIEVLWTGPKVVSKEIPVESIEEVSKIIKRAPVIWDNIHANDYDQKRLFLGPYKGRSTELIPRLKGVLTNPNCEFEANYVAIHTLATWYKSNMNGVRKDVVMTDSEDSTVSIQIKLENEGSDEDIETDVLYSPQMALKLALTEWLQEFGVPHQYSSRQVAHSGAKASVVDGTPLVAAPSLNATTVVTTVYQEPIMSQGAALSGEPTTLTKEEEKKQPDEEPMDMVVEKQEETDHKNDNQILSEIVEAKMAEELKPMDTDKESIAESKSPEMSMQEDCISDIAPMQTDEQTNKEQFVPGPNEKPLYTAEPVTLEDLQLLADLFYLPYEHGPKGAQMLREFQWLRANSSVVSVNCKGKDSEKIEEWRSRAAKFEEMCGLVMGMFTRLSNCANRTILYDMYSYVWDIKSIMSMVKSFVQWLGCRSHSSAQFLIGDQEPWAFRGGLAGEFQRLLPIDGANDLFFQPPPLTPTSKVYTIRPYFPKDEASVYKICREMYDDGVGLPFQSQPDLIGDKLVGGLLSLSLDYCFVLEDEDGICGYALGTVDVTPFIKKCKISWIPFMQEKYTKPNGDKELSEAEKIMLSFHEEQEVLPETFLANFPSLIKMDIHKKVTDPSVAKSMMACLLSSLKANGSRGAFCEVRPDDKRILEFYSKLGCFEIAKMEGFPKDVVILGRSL
Description: The assay is based on the inhibition of the hydrolysis of fluorescein mono-ß-D-N-Acetyl-Glucosamine (FM-GlcNAc) (Mariappa et al. 2015, Biochem J 470:255) by the recombinant human Meningioma Expressed Antigen 5 (MGEA5), also referred to as O-GlcNAcase (OGA). The hydrolysis FM-GlcNAc (Marker Gene technologies, cat #M1485) results in the formation of ß-D-N-glucosamineacetate and fluorescein. The fluorescence of the latter can be measured at excitation wavelength 485 nm and emission wavelength 538 nm. An increase in enzyme activity results in an increase in fluorescence signal. Full length OGA enzyme was purchased at OnGene (cat #TP322411). The enzyme was stored in 25 mM Tris.HCl, pH 7.3, 100 mM glycine, 10% glycerol at −20° C. Thiamet G and GlcNAcStatin were tested as reference compounds (Yuzwa et al. 2008 Nature Chemical Biology 4:483; Yuzwa et al. 2012 Nature Chemical Biology 8:393). The assay was performed in 200 mM Citrate/phosphate buffer supplemented with 0.005% Tween-20. 35.6 g Na2HPO4 2 H2O (Sigma, #C0759) were dissolved in 1 L water to obtain a 200 mM solution. 19.2 g citric acid (Merck, #1.06580) was dissolved in 1 L water to obtain a 100 mM solution. pH of the sodium phosphate solution was adjusted with the citric acid solution to 7.2. The buffer to stop the reaction consists of a 500 mM Carbonate buffer, pH 11.0. 734 mg FM-GlcNAc were dissolved in 5.48 mL DMSO to obtain a 250 mM solution and was stored at −20° C. OGA was used at a 2 nM concentration and FM-GlcNAc at a 100 uM final concentration. Dilutions were prepared in assay buffer. 50 nl of a compound dissolved in DMSO was dispensed on Black Proxiplate™ 384 Plus Assay plates (Perkin Elmer, #6008269) and 3 μl fl-OGA enzyme mix added subsequently. Plates were pre-incubated for 60 min at room temperature and then 2 μl FM-GlcNAc substrate mix added. […] Plates were briefly centrifuged for 1 min at 1000 rpm and incubate at room temperature for 6 h. To stop the reaction 5 μl STOP buffer were added and plates centrifuge again 1 min at 1000 rpm. Fluorescence was quantified in the Thermo Scientific Fluoroskan Ascent or the PerkinElmer EnVision with excitation wavelength 485 nm and emission wavelength 538 nm. For analysis a best-fit curve is fitted by a minimum sum of squares method. From this an IC50 value and Hill coefficient was obtained. High control (no inhibitor) and low control (saturating concentrations of standard inhibitor) were used to define the minimum and maximum values.

| Enzymatic hOGA; pIC50 [2] | Emax [2] [%] | IC50 [2] [nM] | Compound | Emax [1] [%] | EC50 [1] [nM] | Cellular hOGA; pEC50 [1] |
| --- | --- | --- | --- | --- | --- | --- |
| 7.91 | 103 | – | Cc1cncc(C(C)(C)O)c1Nc1nccc2c1ccn2CC1CCO1 (centres unmarked) [Compound 125] | 74.8 | 43.7 | – |
| 7.56 | 101 | – | Cc1cc(OC(F)F)nc(C)c1Nc1nccc2c1ccn2CC1CC(F)(F)C1 [Compound 146] | 76.3 | 45.7 | – |
| 8.63 | 104 | – | Cc1cc(F)cc(C(C)C)c1Nc1nccc2c1ccn2CC1CCO1 (centres unmarked) [Compound 163] | 90.3 | 4.17 | – |
| – | 101 | 1.12 | Cc1cc(-c2cnn(C)c2)cc(C)c1Nc1nccc2c1ccn2CC(F)(F)C(C)C [Compound 178] | 103 | 2.95 | – |
| – | 103 | 23.4 | FC(F)(F)CCn1ccc2c(Nc3c(Cl)cccc3Cl)nccc21 [Compound 200] | 70.1 | 513 | – |
| – | 102 | 6.31 | Cc1ncnc(C(C)C)c1Nc1nccc2c1ccn2CCC1CC1 [Compound 193] | 89.7 | 112 | – |
| 7.8 | 104 | – | Fc1cc(Cl)c(Nc2nccc3c2ccn3CC2CCOC2)c(Cl)c1 (centres unmarked) [Compound 139] | 69.7 | 398 | – |
| 8.16 | 101 | – | Cc1cc(Cn2ccc3c(Nc4c(C)ccnc4C)nccc32)no1 [Compound 133] | 76.1 | 87.1 | – |
| 8.04 | 102 | – | CC[C@H](O)Cn1ccc2c(Nc3c(C)cc(C(F)(F)F)cc3C)nccc21 [Compound 124b] | 76.7 | 27.5 | – |
| – | 101 | 47.9 | N#Cc1ccc(-n2ccc3c(Nc4c(Cl)cccc4Cl)nccc32)nc1 [Compound 166] | 44.1 | 1000 | – |
| – | 101 | 57.5 | Cc1ccnc(C)c1Nc1nccc2c1ccn2CC1(F)CC1 [Compound 204] | 76.1 | 269 | – |
| – | 102 | 2.24 | Cc1cc(C(F)(F)F)nc(C)c1Nc1nccc2c1ccn2CC(F)(F)C(C)C [Compound 185] | 99.8 | 9.77 | – |
| – | 103 | 6.03 | Cc1cc(F)cc(C(C)C)c1Nc1nccc2c1ccn2CC1CC(F)(F)C1 [Compound 171] | 73.8 | 38.9 | – |

Further lines, the compound ahead of its results:

| Compound | Enzymatic hOGA; pIC50 [2] | Emax [2] [%] | IC50 [2] [nM] | Emax [1] [%] | EC50 [1] [nM] | Cellular hOGA; pEC50 [1] |
| --- | --- | --- | --- | --- | --- | --- |
| Cc1ccnc(C)c1Nc1nccc2c1ccn2CCC(F)F [Compound 96] | 7.1 | 102 | – | 60 | 513 | – |
| CCCCn1ccc2c(Nc3c(C)cc(F)cc3C)nccc21 [Compound 73] | – | 101 | 2.69 | 93 | 53.7 | – |
| CC(C)(C#N)Cn1ccc2c(Nc3c(Cl)cc(F)cc3Cl)nccc21 [Compound 83] | – | 96 | 912 | 8 | > 1000 | – |
| CCCCn1ccc2c(Nc3c(C)cc(C)c(Br)c3C)nccc21 [Compound 66] | – | 103 | 3.8 | 84 | 186 | – |
| Cc1ccnc(C)c1Nc1nccc2c1ccn2CC1CCO1 (single isomer, unassigned) [Compound 25a] | – | 102 | 5.89 | 92 | – | 7.3 |
| CC(C)CCn1ccc2c(Nc3c(Cl)cccc3Cl)nccc21 [Compound 60] | – | 102 | 3.63 | 86 | 55 | – |
| N#CCCCn1ccc2c(Nc3c(Cl)cccc3Cl)nccc21 [Compound 50] | – | 102 | 12.6 | 78 | 302 | – |
| CCCCn1ccc2c(Nc3c(F)cncc3C(C)C)nccc21 [Compound 46] | – | 99 | 17.8 | 67 | 251 | – |
| CCCCn1ccc2c(Nc3c(C)ccnc3C)ncc(F)c21 [Compound 80] | – | 100 | 28.8 | 73 | 372 | – |
| CCCCn1ccc2c(Nc3c(C)cc4c(c3C)OCCO4)nccc21 [Compound 53] | – | 105 | 1.86 | 82 | 20.4 | – |
| CCCCn1ccc2c(Nc3c(C)cnnc3C(C)C)nccc21 [Compound 19] | 7.8 | 102 | – | 94 | 83.2 | – |
| CC[C@@H](O)Cn1ccc2c(Nc3c(C)cc(C(F)(F)F)cc3C)nccc21 [Compound 124a] | 7.88 | 103 | – | 74.7 | 21.9 | – |
| Cc1ccnc(C(F)F)c1Nc1nccc2c1ccn2CC1CCO1 (centres unmarked) [Compound 81] | – | 102 | 9.55 | 74 | 102 | – |
